Source: patent US11147272B2, “Pyridone compounds and agricultural and horticultural fungicides comprising the same as active ingredients” (MITSUI CHEMICALS AGRO, INC., priority 2017, dated 2021)

How the values were obtained:
[1] = system: Colletotrichum orbiculare; assay: Test Example H: Anthracnose on cucumber; settings: Anthracnose on cucumber; 250 ppm spray, 6 to 10 days after inoculation
Phytophthora infestans = assay: whole plant or invertebrate; assay type: in vivo; settings: Late blight on tomato; control value class
[2] = system: Blumeria graminis f. sp. hordei; assay: Test Example D: Powdery mildew on barley; settings: Powdery mildew on barley; control value class
Protocol: Seeds of a test plant (barley variety: Akashinriki) were planted and cultivated until the first leaves appeared. In the test, the inventive compounds were dissolved into dimethyl sulfoxide-methanol mixture solution (volume ratio: 9/1), and the resultant solutions were diluted with well water to a concentration of 250 ppm to obtain the drug solutions. The drug solutions were sprayed to the test plant (2.5 ml/pot). After the drug solutions dried, conidia of Blumeria graminis f. sp. hordei were inoculated to the plant by shaking off. The degrees of disease development were investigated 6 to 10 days after the inoculation, and the effectiveness of the drug solutions was evaluated.
In Test Examples described above, the degrees of disease development were evaluated in increments of 0.05 from 0 (as no incidence of disease) to 3 (as the degree of disease development in an untreated plant group). Further, control values were calculated using the following equation based on the degree of disease development.
n=Degree of disease development in each treated group

Plasmopara viticola = assay: Test Example G: Downy mildew on vine; settings: Downy mildew on vine; 250 ppm spray, 7 to 10 days after inoculation
Alternaia brassicicola = assay: Test Example C: Alternaria sooty spot on cabbage; assay type: in vivo; settings: Alternaria sooty spot on cabbage; control value class
Source text: Seeds of a test plant (cabbage variety: Shikidori) were planted and cultivated until the cotyledons extended.
<Control Value> Control value=100{1−(n/3)}

Botrytis cinerea = assay: Test Example B: Gray mold on tomato; settings: Gray mold on tomato; control value class
Puccinia recondita = assay: Test Example E: Brown rust on wheat; assay type: in vivo; settings: Brown rust on wheat; control value class
Magnaporthe grisea = assay: whole plant or invertebrate; assay type: in vivo; settings: Blast on rice; control value class

SMILES: CCn1c(-c2ccc(F)cc2Br)c(CC(C)C)cc(Cl)c1=O [compound 200]
- Test H control value [1]: H (more than 50% control value)
- Test F control value (Phytophthora infestans): H (more than 50% control value)
- Test D control value [2]: H (more than 50% control value)
- Test G control value (Plasmopara viticola): H (more than 50% control value)
- Test C control value (Alternaia brassicicola): H (more than 50% control value)
- Test B control value (Botrytis cinerea): H (more than 50% control value)
- Test E control value (Puccinia recondita): H (more than 50% control value)
- Test A control value (Magnaporthe grisea): H (more than 50% control value)

SMILES: CCn1c(-c2ccc(F)cc2Br)c(CC(C)C)cc(Br)c1=O [compound 201]
- Test H control value [1]: H (more than 50% control value)
- Test F control value (Phytophthora infestans): L (50% or less control value)
- Test D control value [2]: H (more than 50% control value)
- Test G control value (Plasmopara viticola): H (more than 50% control value)
- Test C control value (Alternaia brassicicola): H (more than 50% control value)
- Test B control value (Botrytis cinerea): H (more than 50% control value)
- Test E control value (Puccinia recondita): H (more than 50% control value)
- Test A control value (Magnaporthe grisea): H (more than 50% control value)

SMILES: CCn1c(-c2ccc(F)cc2C)c(CC(C)C)ccc1=O [compound 202]
- Test H control value [1]: L (50% or less control value)
- Test F control value (Phytophthora infestans): L (50% or less control value)
- Test D control value [2]: H (more than 50% control value)
- Test G control value (Plasmopara viticola): H (more than 50% control value)
- Test C control value (Alternaia brassicicola): L (50% or less control value)
- Test B control value (Botrytis cinerea): H (more than 50% control value)
- Test E control value (Puccinia recondita): H (more than 50% control value)
- Test A control value (Magnaporthe grisea): H (more than 50% control value)

SMILES: CCn1c(-c2ccc(F)cc2C)c(CC(C)C)cc(Cl)c1=O [compound 203]
- Test H control value [1]: H (more than 50% control value)
- Test F control value (Phytophthora infestans): H (more than 50% control value)
- Test D control value [2]: H (more than 50% control value)
- Test G control value (Plasmopara viticola): H (more than 50% control value)
- Test C control value (Alternaia brassicicola): H (more than 50% control value)
- Test B control value (Botrytis cinerea): H (more than 50% control value)
- Test E control value (Puccinia recondita): H (more than 50% control value)
- Test A control value (Magnaporthe grisea): H (more than 50% control value)

SMILES: CCn1c(-c2ccc(F)cc2C)c(CC(C)C)cc(Br)c1=O [compound 204]
- Test H control value [1]: H (more than 50% control value)
- Test F control value (Phytophthora infestans): L (50% or less control value)
- Test D control value [2]: H (more than 50% control value)
- Test G control value (Plasmopara viticola): H (more than 50% control value)
- Test C control value (Alternaia brassicicola): H (more than 50% control value)
- Test B control value (Botrytis cinerea): H (more than 50% control value)
- Test E control value (Puccinia recondita): H (more than 50% control value)
- Test A control value (Magnaporthe grisea): H (more than 50% control value)

SMILES: CCCCc1ccc(=O)n(CC)c1-c1ccc(F)cc1Cl [compound 205]
- Test H control value [1]: L (50% or less control value)
- Test F control value (Phytophthora infestans): L (50% or less control value)
- Test D control value [2]: H (more than 50% control value)
- Test G control value (Plasmopara viticola): H (more than 50% control value)
- Test C control value (Alternaia brassicicola): H (more than 50% control value)
- Test B control value (Botrytis cinerea): H (more than 50% control value)
- Test E control value (Puccinia recondita): H (more than 50% control value)
- Test A control value (Magnaporthe grisea): H (more than 50% control value)

SMILES: CCCCc1cc(Cl)c(=O)n(CC)c1-c1ccc(F)cc1Cl [compound 206]
- Test H control value [1]: H (more than 50% control value)
- Test F control value (Phytophthora infestans): H (more than 50% control value)
- Test D control value [2]: H (more than 50% control value)
- Test G control value (Plasmopara viticola): H (more than 50% control value)
- Test C control value (Alternaia brassicicola): H (more than 50% control value)
- Test B control value (Botrytis cinerea): H (more than 50% control value)
- Test E control value (Puccinia recondita): H (more than 50% control value)
- Test A control value (Magnaporthe grisea): H (more than 50% control value)

SMILES: CCCCc1cc(Br)c(=O)n(CC)c1-c1ccc(F)cc1Cl [compound 207]
- Test H control value [1]: H (more than 50% control value)
- Test F control value (Phytophthora infestans): L (50% or less control value)
- Test D control value [2]: H (more than 50% control value)
- Test G control value (Plasmopara viticola): H (more than 50% control value)
- Test C control value (Alternaia brassicicola): H (more than 50% control value)
- Test B control value (Botrytis cinerea): H (more than 50% control value)
- Test E control value (Puccinia recondita): H (more than 50% control value)
- Test A control value (Magnaporthe grisea): H (more than 50% control value)

SMILES: CCCCc1ccc(=O)n(CC)c1-c1ccc(F)cc1Cl [compound 208]
- Test H control value [1]: L (50% or less control value)
- Test F control value (Phytophthora infestans): L (50% or less control value)
- Test D control value [2]: H (more than 50% control value)
- Test G control value (Plasmopara viticola): L (50% or less control value)
- Test C control value (Alternaia brassicicola): H (more than 50% control value)
- Test B control value (Botrytis cinerea): H (more than 50% control value)
- Test E control value (Puccinia recondita): H (more than 50% control value)
- Test A control value (Magnaporthe grisea): H (more than 50% control value)

SMILES: CCCCCc1cc(Cl)c(=O)n(CC)c1-c1ccc(F)cc1Cl [compound 209]
- Test H control value [1]: H (more than 50% control value)
- Test F control value (Phytophthora infestans): L (50% or less control value)
- Test D control value [2]: H (more than 50% control value)
- Test G control value (Plasmopara viticola): H (more than 50% control value)
- Test C control value (Alternaia brassicicola): H (more than 50% control value)
- Test B control value (Botrytis cinerea): H (more than 50% control value)
- Test E control value (Puccinia recondita): H (more than 50% control value)
- Test A control value (Magnaporthe grisea): H (more than 50% control value)

SMILES: CCCCCc1cc(Br)c(=O)n(CC)c1-c1ccc(F)cc1Cl [compound 210]
- Test H control value [1]: H (more than 50% control value)
- Test F control value (Phytophthora infestans): L (50% or less control value)
- Test D control value [2]: H (more than 50% control value)
- Test G control value (Plasmopara viticola): L (50% or less control value)
- Test C control value (Alternaia brassicicola): H (more than 50% control value)
- Test B control value (Botrytis cinerea): H (more than 50% control value)
- Test E control value (Puccinia recondita): H (more than 50% control value)
- Test A control value (Magnaporthe grisea): H (more than 50% control value)

SMILES: CCn1c(-c2ccc(F)cc2)c(C(O)C(C)C)cc(Cl)c1=O (stereo not shown) [compound 211]
- Test H control value [1]: L (50% or less control value)
- Test F control value (Phytophthora infestans): L (50% or less control value)
- Test D control value [2]: L (50% or less control value)
- Test G control value (Plasmopara viticola): L (50% or less control value)
- Test C control value (Alternaia brassicicola): H (more than 50% control value)
- Test B control value (Botrytis cinerea): H (more than 50% control value)
- Test E control value (Puccinia recondita): H (more than 50% control value)
- Test A control value (Magnaporthe grisea): L (50% or less control value)

SMILES: CCn1c(-c2ccc(F)cc2)c(C(=O)C(C)C)cc(Cl)c1=O [compound 212]
- Test H control value [1]: L (50% or less control value)
- Test F control value (Phytophthora infestans): L (50% or less control value)
- Test D control value [2]: H (more than 50% control value)
- Test G control value (Plasmopara viticola): L (50% or less control value)
- Test C control value (Alternaia brassicicola): H (more than 50% control value)
- Test B control value (Botrytis cinerea): H (more than 50% control value)
- Test E control value (Puccinia recondita): H (more than 50% control value)
- Test A control value (Magnaporthe grisea): L (50% or less control value)

SMILES: CCn1c(-c2ccc(F)cc2)c(C(C)(O)C(C)C)cc(Cl)c1=O (stereo not shown) [compound 213]
- Test H control value [1]: H (more than 50% control value)
- Test F control value (Phytophthora infestans): L (50% or less control value)
- Test D control value [2]: H (more than 50% control value)
- Test G control value (Plasmopara viticola): H (more than 50% control value)
- Test C control value (Alternaia brassicicola): H (more than 50% control value)
- Test B control value (Botrytis cinerea): H (more than 50% control value)
- Test E control value (Puccinia recondita): H (more than 50% control value)
- Test A control value (Magnaporthe grisea): H (more than 50% control value)

SMILES: CCn1c(-c2ccc(F)cc2)c(C(C)(OC)C(C)C)cc(Cl)c1=O (stereo not shown) [compound 214]
- Test H control value [1]: L (50% or less control value)
- Test F control value (Phytophthora infestans): L (50% or less control value)
- Test D control value [2]: H (more than 50% control value)
- Test G control value (Plasmopara viticola): L (50% or less control value)
- Test C control value (Alternaia brassicicola): H (more than 50% control value)
- Test B control value (Botrytis cinerea): H (more than 50% control value)
- Test E control value (Puccinia recondita): H (more than 50% control value)
- Test A control value (Magnaporthe grisea): H (more than 50% control value)

SMILES: CCOC(C)(c1cc(Cl)c(=O)n(CC)c1-c1ccc(F)cc1)C(C)C (stereo not shown) [compound 215]
- Test H control value [1]: L (50% or less control value)
- Test F control value (Phytophthora infestans): L (50% or less control value)
- Test D control value [2]: H (more than 50% control value)
- Test G control value (Plasmopara viticola): L (50% or less control value)
- Test C control value (Alternaia brassicicola): L (50% or less control value)
- Test B control value (Botrytis cinerea): L (50% or less control value)
- Test E control value (Puccinia recondita): L (50% or less control value)
- Test A control value (Magnaporthe grisea): L (50% or less control value)

SMILES: CCCOC(C)(c1cc(Cl)c(=O)n(CC)c1-c1ccc(F)cc1)C(C)C (stereo not shown) [compound 216]
- Test H control value [1]: L (50% or less control value)
- Test F control value (Phytophthora infestans): L (50% or less control value)
- Test D control value [2]: H (more than 50% control value)
- Test G control value (Plasmopara viticola): L (50% or less control value)
- Test C control value (Alternaia brassicicola): L (50% or less control value)
- Test B control value (Botrytis cinerea): L (50% or less control value)
- Test E control value (Puccinia recondita): L (50% or less control value)
- Test A control value (Magnaporthe grisea): L (50% or less control value)
